Legend:
[1] = tested on: adult rat ventricular myocytes; test: Cardiomyocyte contractility assay (IonOptix edge detection, fractional shortening); type: cell-based; settings: 1 Hz pacing; for Activity at 1.0 uM (fractional shortening activation over basal): 1.0 uM compound; for Activity at 3.0 uM (fractional shortening activation over basal): 3.0 uM compound
Description: Contractility of adult rat ventricular myocytes is determined by edge detection with an IonOptix contractility system. Aliquots of myocytes in Tyrode buffer (137 mM NaCl, 3.7 mM KCl, 0.5 mM MgCl2, 1.5 mM CaCl2), 4 mM HEPES, 11 mM glucose) are placed in a perfusion chamber (Series 20 RC-27NE; Warner Instruments), allowed to adhere to the coverslip, and then perfused with 37° C. Tyrode buffer. Myocytes are filed stimulated at 1 Hz and 10V. Only myocytes with clear striations, quiescent prior to pacing, with a cell length of 120-180 microns, a basal fractional shortening equal to 3-8% of the cell length, and a contraction velocity greater than 100 microns per second are used for contractility experiments. To determine the response to compounds, myocytes are first perfused for 60 seconds with Tyrodes buffer followed by 5 minutes of compound and a 140 second washout with Tyrodes buffer. Data is continuously recorded using IonOptix software. Contractility data is analyzed using Ionwizard software (IonOptix). For each cell, 10-20 contractility transients were averaged and compared under basal (no compound) and compound-treated conditions. Compound activity is measured by effects on fractional shortening (FS), where fractional shortening is the ratio of the peak length of the cell at contraction divided by the basal cell length normalized to 100% for an untreated cell.

bovine cardiac myosin = bovine cardiac myosin (Bos taurus, UniProt Q9BE39); test: Myosin activation assay (PK/LDH-coupled ATPase, bovine cardiac myofibrils); type: biochemical; settings: AC20 = concentration at which total response is increased by twenty percent
Chain of bovine cardiac myosin (Q9BE39 whole entry): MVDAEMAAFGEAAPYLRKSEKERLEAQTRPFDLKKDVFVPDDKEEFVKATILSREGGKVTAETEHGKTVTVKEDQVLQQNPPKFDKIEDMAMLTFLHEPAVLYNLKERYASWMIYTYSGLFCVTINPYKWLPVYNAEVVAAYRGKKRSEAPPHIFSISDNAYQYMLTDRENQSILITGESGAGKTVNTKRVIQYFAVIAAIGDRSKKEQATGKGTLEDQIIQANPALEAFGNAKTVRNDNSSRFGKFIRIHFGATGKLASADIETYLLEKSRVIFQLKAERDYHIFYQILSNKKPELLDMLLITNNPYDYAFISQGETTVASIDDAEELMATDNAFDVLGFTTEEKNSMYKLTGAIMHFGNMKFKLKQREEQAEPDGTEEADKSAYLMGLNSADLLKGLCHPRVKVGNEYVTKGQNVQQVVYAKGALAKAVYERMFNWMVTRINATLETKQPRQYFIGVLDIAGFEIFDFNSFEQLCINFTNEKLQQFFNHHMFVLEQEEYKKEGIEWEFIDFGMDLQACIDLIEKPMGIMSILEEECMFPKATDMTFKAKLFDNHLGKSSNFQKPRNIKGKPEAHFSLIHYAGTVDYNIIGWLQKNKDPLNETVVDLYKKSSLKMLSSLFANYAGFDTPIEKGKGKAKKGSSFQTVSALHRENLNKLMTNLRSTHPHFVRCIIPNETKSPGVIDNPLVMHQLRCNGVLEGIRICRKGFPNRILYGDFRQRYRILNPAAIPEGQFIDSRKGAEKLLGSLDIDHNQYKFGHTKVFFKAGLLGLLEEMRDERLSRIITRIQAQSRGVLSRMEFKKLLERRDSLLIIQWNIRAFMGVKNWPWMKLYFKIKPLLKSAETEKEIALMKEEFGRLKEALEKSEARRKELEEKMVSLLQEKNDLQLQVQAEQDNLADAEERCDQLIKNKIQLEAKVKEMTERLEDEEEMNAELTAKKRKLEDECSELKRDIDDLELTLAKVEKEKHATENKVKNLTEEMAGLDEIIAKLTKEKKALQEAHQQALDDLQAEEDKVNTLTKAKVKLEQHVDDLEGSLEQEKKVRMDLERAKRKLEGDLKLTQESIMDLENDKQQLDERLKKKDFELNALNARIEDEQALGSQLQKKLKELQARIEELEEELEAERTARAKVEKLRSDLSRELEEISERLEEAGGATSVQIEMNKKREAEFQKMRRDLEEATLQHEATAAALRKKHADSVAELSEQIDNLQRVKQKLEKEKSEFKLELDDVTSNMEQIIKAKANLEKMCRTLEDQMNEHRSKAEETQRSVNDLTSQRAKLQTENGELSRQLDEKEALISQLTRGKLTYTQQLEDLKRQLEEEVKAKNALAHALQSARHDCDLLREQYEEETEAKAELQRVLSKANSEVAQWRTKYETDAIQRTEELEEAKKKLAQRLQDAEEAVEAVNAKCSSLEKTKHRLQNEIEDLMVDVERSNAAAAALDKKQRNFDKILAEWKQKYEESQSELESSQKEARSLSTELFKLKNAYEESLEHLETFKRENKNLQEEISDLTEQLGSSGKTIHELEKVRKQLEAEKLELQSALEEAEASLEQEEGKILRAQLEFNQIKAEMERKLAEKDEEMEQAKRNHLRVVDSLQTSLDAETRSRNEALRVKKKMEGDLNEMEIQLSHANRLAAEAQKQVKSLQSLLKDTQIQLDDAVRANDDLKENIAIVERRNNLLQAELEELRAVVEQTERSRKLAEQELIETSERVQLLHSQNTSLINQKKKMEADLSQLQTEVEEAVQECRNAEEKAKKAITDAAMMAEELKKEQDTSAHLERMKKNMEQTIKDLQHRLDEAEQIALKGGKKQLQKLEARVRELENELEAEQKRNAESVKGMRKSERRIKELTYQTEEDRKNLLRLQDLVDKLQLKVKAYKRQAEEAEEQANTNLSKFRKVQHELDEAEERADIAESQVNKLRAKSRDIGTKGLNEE
Chain of bovine cardiac myosin (P85100 whole entry partner): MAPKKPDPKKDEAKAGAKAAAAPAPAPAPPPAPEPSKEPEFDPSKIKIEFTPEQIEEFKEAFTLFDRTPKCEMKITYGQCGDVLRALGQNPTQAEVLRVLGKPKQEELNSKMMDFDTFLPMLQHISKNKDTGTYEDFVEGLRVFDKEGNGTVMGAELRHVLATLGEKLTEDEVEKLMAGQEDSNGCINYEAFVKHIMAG
Chain of bovine cardiac myosin (Q3SZE5 whole entry partner): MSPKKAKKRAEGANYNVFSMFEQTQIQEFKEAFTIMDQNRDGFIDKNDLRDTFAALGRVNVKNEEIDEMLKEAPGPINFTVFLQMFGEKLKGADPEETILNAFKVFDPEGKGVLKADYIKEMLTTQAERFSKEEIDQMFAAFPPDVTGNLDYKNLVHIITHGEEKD
In short: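 Skinned bovine cardiac myofibrils (1 mg/mL) in PIPES/MgCl2 buffer pH 6.8 at free Ca2+ giving ~50% (pCa ~6) or <5% (pCa 10) activation, with 50 μM ATP and 3.3% DMSO. ATPase rate from NADH absorbance at 340 nm (PK/LDH coupling) over 15 min at ambient temperature. AC20/AC50 from a four-parameter fit of DMSO-normalised rates.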

In the case of CC(C)(C1CCN(C(=O)Nc2ccncc2)CC1)S(=O)(=O)c1cccc(F)c1 [Compound 32, 4-(2-((3-fluorophenyl)sulfonyl)propan-2-yl)-N-(pyridin-4-yl)piperidine-1-carboxamide], the “Activity at 1.0 uM (fractional shortening activation over basal)” value [1] is reported as “++ (++ represents fractional shorting activation values from 20% to 50% over basal)” and the “Myosin Activation (AC20)” value (bovine cardiac myosin) is reported as “+++ (+++ represents myosin activation value AC20 < 2 μM)”.
With Cn1nc(Cl)cc1S(=O)(=O)C(C)(C)C1CCN(C(=O)Nc2ccon2)CC1 [Compound 129, 4-(2-((3-chloro-1-methyl-1H-pyrazol-5-yl)sulfonyl)propan-2-yl)-N-(isoxazol-3-yl)piperidine-1-carboxamide] the “Activity at 3.0 uM (fractional shortening activation over basal)” value [1] was “+++ (+++ represents fractional shortening activation values greater than 50% over basal)” and the “Myosin Activation (AC20)” value (bovine cardiac myosin) was “+++ (+++ represents myosin activation value AC20 < 2 μM)”.
In the case of Cn1cc(S(=O)(=O)C(C)(C)C2CCN(C(=O)Nc3ccon3)CC2)c(C(F)F)n1 [Compound 149, 4-(2-((3-(difluoromethyl)-1-methyl-1H-pyrazol-4-yl)sulfonyl)propan-2-yl)-N-(isoxazol-3-yl)piperidine-1-carboxamide], the “Activity at 3.0 uM (fractional shortening activation over basal)” value [1] is reported as “++ (++ represents fractional shorting activation values from 20% to 50% over basal)” and the “Myosin Activation (AC20)” value (bovine cardiac myosin) is reported as “++ (++ represents myosin activation value AC20 from 2 μM-5 μM)”.
COc1ccc(S(=O)(=O)C(C)(F)C2CCN(C(=O)Nc3ccon3)CC2)cn1 (centres unmarked) [Compound 246, 4-(1-fluoro-1-((6-methoxypyridin-3-yl)sulfonyl)ethyl)-N-(isoxazol-3-yl)piperidine-1-carboxamide] was tested, and the “Activity at 3.0 uM (fractional shortening activation over basal)” value [1] was “+++ (+++ represents fractional shortening activation values greater than 50% over basal)” and the “Myosin Activation (AC20)” value (bovine cardiac myosin) was “++ (++ represents myosin activation value AC20 from 2 μM-5 μM)”.
For C[C@](F)(C1CCN(C(=O)Nc2ccnc(CO)c2)CC1)S(=O)(=O)c1cccc(F)c1 [Compound 287, (R)-4-(1-fluoro-1-((3-fluorophenyl)sulfonyl)ethyl)-N-(2-(hydroxymethyl)pyridin-4-yl)piperidine-1-carboxamide], the “Activity at 1.0 uM (fractional shortening activation over basal)” value [1] was “++ (++ represents fractional shorting activation values from 20% to 50% over basal)”, the “Activity at 3.0 uM (fractional shortening activation over basal)” value [1] was “++ (++ represents fractional shorting activation values from 20% to 50% over basal)” and the “Myosin Activation (AC20)” value (bovine cardiac myosin) was “+++ (+++ represents myosin activation value AC20 < 2 μM)”.

From patent US11123337B2, “4-methylsulfonyl-substituted piperidine urea compounds” (MYOKARDIA, INC., priority 2015, dated 2021)
